Patent publication US10457665B2, “1,4-di-(4-methylthiophenyl)-3-phtaloylazetidine-2-one and the derivatives thereof” (Universite De Nantes, priority 2015, dated 2019)

Assays:
Type in all cases: in vivo, mouse
obese C57BL/6 mice [1] = assay: Body mass, 43-day oral treatment combined with low-fat diet; conditions: low-fat diet (5% lipids), oral daily, 43 days
Description: In order to determine the long-term effects of compound of interest JM-00.266 (i.e., compound IA), C57BL/6 mice were made obese by means of a high-fat diet (30% crude fat, 33.5% carbohydrates; ref. E15126-34, SSNIFF, Soest, Germany) for 15 weeks. The mice were then subjected to a low-fat diet (5% lipids; Standard Diet AO4; UAR, Epinay-sur-Orge, France) and received daily, in the middle of the day, an oral dose of JM-00.266 (i.e., compound IA) or of vehicle over a period of 43 days. The weight of the animals was measured every two days from the beginning of the treatment.

CB1R -/- mice = assay: Acute oral glucose tolerance test (OGTT) in CB1R KO mice; conditions: 10 mg/kg i.p., OGTT 2 g/kg
Description: (§1) In order to evaluate the short-term effects of the rimonabant-like molecules, as well as their selectivity for CB1R, wild-type C57BL/6 mice and CB1R −/− mice underwent an oral glucose tolerance test (OGTT at 2 g/kg) 10 min after i.p. injection of vehicle or of JM-02.003 or JM-00.266 (i.e., compound IA) (10 mg/kg). Blood glucose was measured at times t=0, t=15 min, t=30 min, t=45 min, t=60 min, t=90 min, and t=120 min post-oral. glucose administration using a Contour®TS blood glucose monitor (ref. 81574201, Bayer HealthCare) and reactive strips (ref. 81574274, Bayer HealthCare).

obese C57BL/6 mice [2] = assay: Plasma liver markers after 30-day chronic treatment
Description: In order to determine the long-term effects of the molecules of interest, C57BL/6 mice made obese by means of a high-sucrose, high-fat diet (HSHF: 30% crude fat, 33.5% carbohydrates; ref. E15126-34; ref. E15126-34, SSNIFF, Soest, Germany) for 20 weeks. These mice then received daily an i.p. injection of rimonabant, JM-00.266 (i.e., compound IA) or vehicle for a period of 30 days. In parallel, weight and food intake were monitored every two days following the beginning of the treatment.
(§2) Total cholesterol, triglycerides and hepatic markers were assayed by a Dimension Vista Intelligent Lab System (Siemens, Saint-Denis, France) using suitable reagents.

C57BL/6 mice = assay: Gastrointestinal transit (charcoal), anandamide-induced inhibition; conditions: 10 mg/kg i.p. with AEA 10 mg/kg i.p.
Description: Transit through the stomach and the intestine was measured via oral administration of vegetable charcoal suspended in gum arabic used herein as nonabsorbable marker. Briefly, following a short fast, C57BL/6 mice were injected intraperitoneally (i.p.) with anandamide (10 mg/kg) in the presence or absence of the molecule of interest JM-00.266 (i.e., compound IA) (10 mg/kg) before oral charcoal administration. 25 minutes later, the animals were sacrificed by cervical dislocation in order to entirely remove the intestine. The distance between the beginning of the pylorus and the location of the charcoal bolus was measured.

obese C57BL/6 mice [3] = assay: Body mass, oral treatment simultaneously with food on high-fat diet; conditions: obese mice on high-fat diet (35% crude fat), one administration daily during the meal, 10 mg/kg oral, 28 days
Description: C57BL/6 mice were made obese by means of a high-fat diet (35% crude fat, 25.3% carbohydrates; ref. E15742-34, SSNIFF, Soest, Germany) for 15 weeks. […] The weight of the animals was measured every two days from the beginning of the treatment.

obese C57BL/6 mice [4] = assay: Open-field test after 30-day chronic treatment; conditions: end of 30-day treatment, 10 mg/kg i.p.
Description: Locomotor activity of the mice was measured at the conclusion of the chronic treatment with rimonabant or molecule JM-00.266 (i.e., compound IA) by an infrared monitoring system. To that end, the animals were placed individually in 43×43 cm plexiglass boxes (MED associates) for 20 min. Two series of 16 pulsed infrared beams were spaced 2.5 cm apart on opposite walls to record ambulatory X-Y movements at 100 ms resolution. The centre was defined as a central 32×32 cm square. In addition to locomotor activity information, this test makes it possible to predict anxiolytic activity in response to novelty or to an anxiogenic environment. The variables measured in the open field are total ambulatory activity (in cm), the number of entries and the time spent in the central area as well as the distance traversed in the centre divided by the total distance traversed.

wild-type C57BL/6 mice [5] = assay: Acute oral glucose tolerance test (OGTT) in wild-type mice; conditions: 10 mg/kg i.p. 10 min before 2 g/kg oral glucose load, wild-type C57Bl/6J mice
Description: as §1

[6] = Plasma assay of triglycerides; conditions: context of obesity; stated in conclusion only
Description: as §2

wild-type C57BL/6 mice [7] = assay: Plasma insulin during OGTT (ELISA); conditions: 10 mg/kg i.p.
Description: Assay of plasma insulin was carried out using the ALPCO™ Mouse Insulin ELISA Kit (ref. AKRIN-011T, ALPCO Diagnostics) according to the supplier's instructions. Blood samples were collected during an OGTT at t=0, t=30, t=60, t=120 min post-administration of the oral bolus of glucose (2 g/kg).

obese C57BL/6 mice [8] = assay: ITT before and after 30-day chronic treatment; conditions: obese mice after 30 days of treatment
Description: In order to evaluate the long-term effects of the treatment on blood glucose control, glucose tolerance (OGTT) and insulin sensitivity (ITT) were evaluated pre- and post-treatment. Thus, for the OGTT the mice were force-fed glucose (2 g/kg), and for the ITT the mice received an i.p. injection of insulin (0.5 IU/kg). In both cases, blood glucose was measured at times t=0, t=15 min, t=30 min, t=45 min, t=60 min, t=90 min, and t=120 min post-glucose ingestion using a Contour®TS blood glucose monitor (ref. 81574201, Bayer HealthCare) and reactive strips (ref. 81574274, Bayer HealthCare).

[9] = obese mice, 10 mg/kg i.p. daily, 30 days

SMILES: CSc1ccc(C2C(N3C(=O)c4ccccc4C3=O)C(=O)N2c2ccc(SC)cc2)cc1 (stereo not drawn) [JM-00.266, trans-1,4-di-(4-methylthiophenyl)-3-N-phthaloyl-azetidine-2-one]
- body mass / weight loss versus vehicle + low-fat diet (obese C57BL/6 mice [1]): decreases significantly more
- improvement in glucose tolerance in CB1R KO mice (CB1R -/- mice): abolished
- liver damage markers compared with the control (obese C57BL/6 mice [2]; 30-day chronic treatment): does not cause an increase
- liver toxicity (obese C57BL/6 mice [2]; chronic administration): no liver toxicity
- ALPI plasma concentration (obese C57BL/6 mice [2]; [9]): 47.3 ± 3.6
- ALT plasma concentration (obese C57BL/6 mice [2]; [9]): 34.3 ± 10.5 U/L
- AST plasma concentration (obese C57BL/6 mice [2]; [9]): 60.8 ± 13.4 U/L
- Gamma GT plasma concentration (obese C57BL/6 mice [2]; [9]): <3 U/L
- Total bilirubin plasma concentration (obese C57BL/6 mice [2]; [9]): <2 µmol/L
- effect on AEA-induced inhibition of gastrointestinal transit (C57BL/6 mice): completely abolishes the effect of the agonist and normalizes gastrointestinal transit
- weight loss versus vehicle (obese C57BL/6 mice [3]): lose more weight
- motor activity (obese C57BL/6 mice [4]): no effect
- time spent in the centre of the arena / anxiety state (obese C57BL/6 mice [4]): not altered
- glucose tolerance compared with vehicle (wild-type C57BL/6 mice [5]): improves glucose tolerance
- blood triglycerides [6]: decreasing blood triglycerides
- blood insulin at t=30 min (wild-type C57BL/6 mice [7]; versus vehicle): lower
- insulin production induced by glucose administration (wild-type C57BL/6 mice [7]; wild-type mice): not stimulated
- reduction in blood glucose induced by insulin injection, compared with SR141716 (obese C57BL/6 mice [8]): more marked
- insulin resistance (ITT) (obese C57BL/6 mice [8]; 10 mg/kg): improved
